Test results reported in patent publication US20160151305A1, “AGENT OR METHOD FOR TREATEMENT AND/OR PREVENTION OF ACCELERATED ENERGY EXPENDITURE AND/OR DIMINISHED ENERGY EXPENDITURE FUNCTIONALITY” (MATSUTANI CHEMICAL INDUSTRY CO., LTD., priority 2013, published 2016).
“Also recorded” adds a separate entry of the source.

How the values were obtained:
[1] = Sensory test by continuous administration of D-psicose in humans (interview); assay type: in vivo; conditions: for Changes: Body became easier to move (number of subjects) / Changes: Body felt lighter (number of subjects) / Changes: Body felt warmer (number of subjects) / Changes: Felt better (number of subjects) / Changes: Felt less fatigue (number of subjects) / Changes: No change (number of subjects): 5 healthy humans, once a day for 2 weeks, sample A = D-psicose 1.0 g, B = 2.5 g, C = 5.0 g
Protocol: The test was conducted for 5 healthy individuals with no smoking habit (average age of 35.0; 3 males and 2 females). Prior to the experiment, the subjects were fully informed of the experiment contents in line with the guidelines of the Declaration of Helsinki, and the experiment was conducted with the informed consent of all subjects. The subjects were each asked to continuously take sample A (D-psicose, 1.0 g), once a day for 2 weeks. The subjects were then interviewed to see if there was any physical changes. After 1 week, the same subjects were continuously given sample B (D-psicose, 2.5 g) for 2 weeks in the same manner as for sample A, and were interviewed again. The same procedure was repeated after 1 week by continuously giving sample C (D-psicose, 5.0 g) to the same subjects, followed by an interview.

[2] = Metabolism test by single oral administration of D-psicose in rats (indirect calorimetry); assay type: in vivo, male Sprague-Dawley rats; conditions: glucose+fructose+psicose (+Psi group) vs glucose+fructose (-Psi group), mean value every 12 minutes, FIG. 1
Description: Effects of single oral administration of D-psicose on energy metabolism were examined using male Sprague-Dawley rats (7 weeks of age; purchased from CLEA Japan). The rats were preliminarily maintained for 1 week with a commercially available solid feed (CE-2; CLEA Japan), and were divided into 3 groups so as to be uniform in body weight upon measuring the body weight (each group contained eight rats).
The rats were individually put in a cage of a respiratory metabolism measurement system for small animals MK-5000 (Muromachi Kikai Co., Ltd.) at 16 o'clock on the day before a calorimetric test. The rats were measured by indirect calorimetry, and acclimated in the dark without food (dark period).
The rats were placed under a light at 10 o'clock next morning (light period). […] The solution concentrations are different to match total energy amounts. […] For the rest of the experiment, the rats were allowed access to only purified water, and the calorific value was continuously measured until 10 o'clock next day at 23° C. under light.
Resting energy metabolism (resting energy expenditure; hereinafter, “REE”, kcal/min) was calculated by using the Weir equation, and the result was divided by body weight (hereinafter, “BW”, in kg). The mean of measured values from 12 min to 60 min before the administration was regarded as a value at hour 0, and amounts of change were calculated over time. […]

[3] = Human tests, single D-psicose administration with pure carbohydrate food, energy expenditure; assay type: in vivo; conditions: humans
[4] = Metabolism test by long-term administration of D-psicose in rats (hourly energy expenditure); assay type: in vivo, male Wistar rats; conditions: feed with 50.0 g/kg D-psicose + sucrose vs sucrose group, after 5 to 7 weeks, at hour 11 in the light period and hour 5 and 6 in the dark period, FIG. 2
Description: Effects of long-term administration of D-psicose on energy metabolism were examined using male Wistar rats (3 weeks of age; purchased from Japan SLC). The rats were preliminarily maintained for 1 week with a commercially available powder feed (product name MF; Oriental Yeast Co., Ltd.), and were divided into 2 groups so as to be uniform in body weight upon measuring the body weight (each group contained eight rats). The two groups are a sucrose administered group, and a sucrose+D-psicose administered group.
The two groups of rats were allowed free access to experiment feed (Table 2) and water, and maintained under specific conditions (temperature 22±1° C., humidity 58±2%, light period 8:00 to 20:00, dark period 20:00 to 8:00 next morning). The energy metabolism was measured 5 to 7 weeks after the experiment feed was given. […] The rat breath and the room air were collected into a Douglas bag (Fukuda Sangyo) at 1-hour intervals, and the oxygen and carbon dioxide concentrations were measured with a gas concentration analyzers G-102 and LX-710 (Iijima Electronics Corporation) for 24 hours. The amounts of oxygen consumed by the rat, and the amount of generated carbon dioxide were calculated from the oxygen concentration and the carbon dioxide concentration in the breath, and the oxygen concentration and the carbon dioxide concentration in room air. […]

[5] = Metabolism test by single administration of D-psicose in humans (indirect calorimetry of breath); assay type: in vivo
Protocol: Effects of single administration of D-psicose on energy expenditure, carbohydrate combustion, and lipid combustion were examined in humans. Energy metabolism was calculated by indirect calorimetry from measurements of subjects' breath (oxygen consumption and carbon dioxide discharge). The test was conducted by a single-blinded crossover study of two groups of 6 healthy individuals with no smoking habit (average age of 34.8; 3 males and 3 females; average BMI 21.4 kg/m^2). Prior to the experiment, the subjects were fully informed of the experiment contents in line with the guidelines of the Declaration of Helsinki, and the experiment was conducted with the informed consent of all subjects. The subjects were fasted for 12 hours before starting the test, and were each given a test solution (150 ml) prepared by adding 5 g of D-psicose, or a test solution (150 ml) prepared by adding 10 mg of high sweetener aspartame to provide the same sweetness as control food. The concentration of the test solution was 3.3% for the D-psicose group, and 0.005% for the aspartame group. After giving the test solution, the subjects were given breakfast (hamburg steak with rice; total calorie: 571 kcal; protein 13.4%, lipid 25.3%, carbohydrate 61.3%). After the breakfast, the subjects were rested on the bed for 20 min in the resting supine position to acclimate to the environment, and the breath was measured with an Aero Monitor AE-310S (Minato Medical Science) connected to a breathing hood. The measurement was ended after 4 hours from the breakfast. During the measurement, the oxygen consumption and the carbon dioxide discharge of each subject were recorded every minute, and energy expenditure, carbohydrate combustion, and lipid combustion were calculated from the measured values using the Elwyn energy equation. Throughout the breath measurement, the subjects were rested on the bed in the resting supine position, and were kept awake and fasted. The results were divided by subject ‘ s body weights, and were represented as mean values and standard deviation. […]

[6] = 5 g D-psicose immediately before lipid-containing breakfast vs aspartame control, 20 minutes to 4 hours from breakfast, FIG. 3

SMILES	Changes: Body became easier to move (number of subjects) [1]	Changes: Body felt lighter (number of subjects) [1]	Changes: Body felt warmer (number of subjects) [1]	Changes: Felt better (number of subjects) [1]	Changes: Felt less fatigue (number of subjects) [1]	Changes: No change (number of subjects) [1]	interview result on repeat test ([1]; humans, sample A (D-psicose 1.0 g) again for 2 weeks, 1 week after testing with sample C)	AREE/BW (change of resting energy expenditure per body weight, water group subtracted) [2]	effect on energy expenditure [3]	hourly energy expenditure per measured rat weight [4]	energy expenditure (REE) per body weight [5, 6]	lipid combustion (FEE) per body weight [5, 6]	energy metabolism result at lower dose ([5]; single D-psicose dose 2.4 g)	physical changes reported in interview ([1]; humans, continuous intake of 2.5 g or more of D-psicose for 2 weeks)
O=C(CO)[C@H](O)[C@H](O)[C@H](O)CO [A, D-psicose]	1	1	1	1	1	4	produced the same result							
O=C(CO)[C@H](O)[C@H](O)[C@H](O)CO [B, D-psicose]	2	3	3	2	2	0								
O=C(CO)[C@H](O)[C@H](O)[C@H](O)CO [C, D-psicose]	3	5	5	2	2	0								
O=C(CO)[C@H](O)[C@H](O)[C@H](O)CO [D-psicose]								no significant difference	did not have effect on energy expenditure	significantly higher	significantly increased	significantly increased	did not show any difference	The subjects all experienced some changes; also recorded: increase or improve body temperature and other sensations
